Data published in ChEMBL document CHEMBL1201862, “PubChem BioAssay data set” (2004).
Activity calls are given as the source filed them.

Tests used:
[1] = target: T1, Histone-lysine N-methyltransferase NSD2 (Homo sapiens, UniProt O96028); type: biochemical
T1 sequence (O96028 whole entry): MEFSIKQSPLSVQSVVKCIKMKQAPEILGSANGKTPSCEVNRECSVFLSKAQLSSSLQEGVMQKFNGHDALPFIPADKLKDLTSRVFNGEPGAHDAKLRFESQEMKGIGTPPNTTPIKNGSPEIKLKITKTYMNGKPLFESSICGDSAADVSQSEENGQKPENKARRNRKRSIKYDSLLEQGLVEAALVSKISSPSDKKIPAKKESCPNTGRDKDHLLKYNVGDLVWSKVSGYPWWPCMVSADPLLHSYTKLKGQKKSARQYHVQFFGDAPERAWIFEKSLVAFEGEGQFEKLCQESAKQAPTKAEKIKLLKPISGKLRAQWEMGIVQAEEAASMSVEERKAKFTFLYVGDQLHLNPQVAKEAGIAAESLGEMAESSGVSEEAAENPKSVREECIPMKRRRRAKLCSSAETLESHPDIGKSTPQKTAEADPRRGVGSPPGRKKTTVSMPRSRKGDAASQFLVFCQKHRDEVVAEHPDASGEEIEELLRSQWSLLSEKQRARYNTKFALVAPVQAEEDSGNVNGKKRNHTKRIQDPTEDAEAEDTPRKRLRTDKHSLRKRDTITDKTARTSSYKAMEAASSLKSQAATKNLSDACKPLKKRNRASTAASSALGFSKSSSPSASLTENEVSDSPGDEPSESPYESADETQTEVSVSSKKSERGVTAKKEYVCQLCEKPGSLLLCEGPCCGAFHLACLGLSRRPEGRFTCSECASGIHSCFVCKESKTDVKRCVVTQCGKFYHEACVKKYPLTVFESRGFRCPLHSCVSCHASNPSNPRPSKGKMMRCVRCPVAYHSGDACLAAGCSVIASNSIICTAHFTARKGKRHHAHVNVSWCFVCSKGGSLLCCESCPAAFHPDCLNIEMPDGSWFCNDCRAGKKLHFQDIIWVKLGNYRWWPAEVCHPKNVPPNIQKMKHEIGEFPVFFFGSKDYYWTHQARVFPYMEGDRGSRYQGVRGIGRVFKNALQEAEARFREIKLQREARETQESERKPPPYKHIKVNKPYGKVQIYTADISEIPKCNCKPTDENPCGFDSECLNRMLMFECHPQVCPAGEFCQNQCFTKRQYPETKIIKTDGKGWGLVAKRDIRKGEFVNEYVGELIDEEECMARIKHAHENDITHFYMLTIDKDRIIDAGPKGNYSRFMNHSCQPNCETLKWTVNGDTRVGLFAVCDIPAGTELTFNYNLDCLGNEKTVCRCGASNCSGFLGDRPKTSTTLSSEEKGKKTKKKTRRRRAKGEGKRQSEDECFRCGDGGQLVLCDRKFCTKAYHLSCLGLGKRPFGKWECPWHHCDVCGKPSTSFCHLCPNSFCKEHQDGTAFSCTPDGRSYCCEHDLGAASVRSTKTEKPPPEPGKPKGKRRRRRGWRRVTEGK

[2] = target: T2, DNA repair protein RAD52 homolog (Homo sapiens, UniProt P43351); type: functional, biochemical
T2 sequence (P43351 whole entry): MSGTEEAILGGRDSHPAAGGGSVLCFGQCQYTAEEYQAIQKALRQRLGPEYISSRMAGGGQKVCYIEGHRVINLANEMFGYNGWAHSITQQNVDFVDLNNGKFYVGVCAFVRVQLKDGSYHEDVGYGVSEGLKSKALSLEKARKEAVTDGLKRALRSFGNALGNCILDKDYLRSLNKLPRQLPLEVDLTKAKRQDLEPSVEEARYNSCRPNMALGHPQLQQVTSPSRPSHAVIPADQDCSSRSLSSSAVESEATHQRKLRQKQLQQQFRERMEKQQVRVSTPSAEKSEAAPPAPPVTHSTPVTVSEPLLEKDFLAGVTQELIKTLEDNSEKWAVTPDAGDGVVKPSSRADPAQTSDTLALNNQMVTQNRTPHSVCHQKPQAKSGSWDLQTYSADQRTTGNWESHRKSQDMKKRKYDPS

[3] = target: T3, Rac GTPase-activating protein 1 (Homo sapiens, UniProt Q9H0H5); assay: blockers of MgcRacGAP-driven Rac1 GTP hydrolysis – biochemical, ADP Hunter fluorescence, primary and confirmatory, confirmation (AID 624330); type: functional
T3 sequence (Q9H0H5 whole entry): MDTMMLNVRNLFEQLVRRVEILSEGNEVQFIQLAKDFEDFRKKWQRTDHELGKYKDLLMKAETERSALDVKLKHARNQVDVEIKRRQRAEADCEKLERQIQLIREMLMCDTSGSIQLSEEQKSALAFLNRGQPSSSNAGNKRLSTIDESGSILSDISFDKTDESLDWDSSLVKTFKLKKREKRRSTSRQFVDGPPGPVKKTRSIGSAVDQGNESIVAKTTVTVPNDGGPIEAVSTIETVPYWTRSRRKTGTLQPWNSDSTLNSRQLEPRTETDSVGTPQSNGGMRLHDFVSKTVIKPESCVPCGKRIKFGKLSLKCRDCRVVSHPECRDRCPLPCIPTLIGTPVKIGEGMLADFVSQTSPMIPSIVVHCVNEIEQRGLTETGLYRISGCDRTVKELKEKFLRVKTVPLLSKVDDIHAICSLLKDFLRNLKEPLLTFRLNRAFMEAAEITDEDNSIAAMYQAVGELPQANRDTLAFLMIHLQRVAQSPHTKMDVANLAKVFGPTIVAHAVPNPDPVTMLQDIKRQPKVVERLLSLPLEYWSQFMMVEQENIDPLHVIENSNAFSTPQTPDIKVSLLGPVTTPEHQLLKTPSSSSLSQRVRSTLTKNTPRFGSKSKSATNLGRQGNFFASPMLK

[4] = NIH3T3 cell viability loss – ATP luminescence, mouse fibroblasts, counter-screen, dose response (AID 2010); type: functional, cell-based;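 further: cells exposed to compound for about 90 hours before reading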
[5] = Trypanosoma cruzi growth suppression in host cells – NIH3T3 host cells, beta-gal luminescence, confirmation (AID 2044); type: functional, cell-based;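 further: intracellular parasites grown in NIH/3T3 mouse fibroblasts as host cells; luminescent beta-galactosidase reporter signal from transgenic T. cruzi replicating inside host cells; inhibitors lower the luminescence signal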
Fatty acid synthase [6] = target: T4, Fatty acid synthase (Homo sapiens, UniProt P49327); assay: inhibition of human FAS-TE enzyme activity – biochemical, kinetic fluorescence intensity, dose response (AID 624326); type: functional;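 further: rate of fluorescence rise from hydrolysis of a fluorogenic O-methyl fluorescein ester substrate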
Fatty acid synthase [7] = target: T4, Fatty acid synthase; assay: inhibition of human FAS-TE enzyme activity – biochemical, endpoint fluorescence intensity, uHTS hits, dose response (AID 624327); type: functional;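 further: fluorescence from hydrolysis of an O-methyl fluorescein acyl ester substrate by the enzyme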
cells = type: functional, cell-based
[8] = target: T5, Nuclear receptor subfamily 0 group B member 1 (Homo sapiens, UniProt P51843); type: functional, cell-based;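 further: HEK293T cells transfected with SF-1 and DAX-1 plus StAR promoter luciferase reporter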
T5 sequence (P51843 whole entry): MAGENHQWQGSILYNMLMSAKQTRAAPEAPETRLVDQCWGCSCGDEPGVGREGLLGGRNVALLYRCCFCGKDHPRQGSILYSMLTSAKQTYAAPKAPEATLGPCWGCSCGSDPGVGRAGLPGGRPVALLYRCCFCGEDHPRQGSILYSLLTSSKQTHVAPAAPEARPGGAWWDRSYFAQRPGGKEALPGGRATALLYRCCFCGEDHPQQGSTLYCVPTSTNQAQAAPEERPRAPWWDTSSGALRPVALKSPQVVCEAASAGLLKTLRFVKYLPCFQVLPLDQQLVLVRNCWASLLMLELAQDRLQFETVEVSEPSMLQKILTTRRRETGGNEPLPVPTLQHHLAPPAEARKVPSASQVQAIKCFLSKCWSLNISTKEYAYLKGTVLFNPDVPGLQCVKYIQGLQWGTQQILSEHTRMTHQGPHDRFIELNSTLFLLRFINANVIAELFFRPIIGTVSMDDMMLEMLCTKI

[9] = target: T6, Heat shock factor protein 1 (Mus musculus, UniProt P38532); assay: decrease of HSF1-responsive luciferase luminescence – cell-based, NIH3T3, dose retest, confirmation (AID 2382); type: functional;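 further: NIH3T3 fibroblasts with HSF1-driven luciferase reporter stressed by proteasome inhibitor MG132; luminescence from HSF1-driven luciferase expression after 8 hours of MG132 stress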
T6 sequence (P38532 whole entry): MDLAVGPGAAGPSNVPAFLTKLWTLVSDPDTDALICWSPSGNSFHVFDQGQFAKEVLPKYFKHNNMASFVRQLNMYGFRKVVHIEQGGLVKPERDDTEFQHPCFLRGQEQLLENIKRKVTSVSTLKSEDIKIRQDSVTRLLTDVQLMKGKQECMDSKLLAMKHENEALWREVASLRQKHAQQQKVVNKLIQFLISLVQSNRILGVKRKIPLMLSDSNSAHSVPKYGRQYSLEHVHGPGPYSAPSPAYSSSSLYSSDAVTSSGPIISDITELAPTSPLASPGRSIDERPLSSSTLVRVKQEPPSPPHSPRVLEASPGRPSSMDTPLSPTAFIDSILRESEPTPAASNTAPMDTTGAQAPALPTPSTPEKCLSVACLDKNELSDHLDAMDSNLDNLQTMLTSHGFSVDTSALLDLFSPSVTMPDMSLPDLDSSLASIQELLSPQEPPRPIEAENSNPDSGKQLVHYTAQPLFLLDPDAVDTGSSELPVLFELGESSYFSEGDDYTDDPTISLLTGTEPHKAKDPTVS

[10] = viability of PTEN-deleted HCT116 cells – cell-based, HCT116 PTEN knockout, dose response (AID 1047); type: functional;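 further: HCT116 colon tumor cells with PTEN knocked out; cells exposed to compound for 60 hours before readout; potency for loss of cell viability measured by luminescence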
Prothrombin = Prothrombin (Homo sapiens, UniProt P00734); assay: Thrombin 1536 HTS Dose Response Confirmation. [Related pubchem assays: 1046 (Thrombin 1536 HTS; hits were confirmed in this assay)]; type: functional
[11] = viability of HCT116 lacking mutant beta-catenin – cell-based, human colon tumor, dose response (AID 1045); type: functional;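 further: HCT116 colon tumor cells with beta catenin knocked out; cells exposed to compound for 60 hours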
[12] = Luminescence Cell-Based Dose Response HTS to Identify Inhibitors of 5'UTR Stem-Loop Driven Prion Protein mRNA Translation in H4 Neuroglioblastoma Cells. [Related pubchem assays: 1827 (Project Summary), 1813 (Primary HTS)]; type: functional
[13] = DRD fibroblast viability loss – cell-based, non-viral oncogenic, luminescence, dose response (AID 1934); type: functional; conditions: Homo sapiens
BJ [14] = assay: BJ-TERT-LT-ST fibroblast viability loss – cell-based, RAS-independent, luminescence, dose response (AID 1935); type: functional; conditions: Homo sapiens;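 further: BJ fibroblasts immortalized with TERT plus LT and ST oncogenes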
BJ [15] = assay: growth inhibition of engineered Ras-driven BJ cells – cell-based, alamar blue fluorescence, cherrypicked samples, dose response (AID 2631); type: functional; conditions: Homo sapiens;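 further: confirmatory dose-response assay in RAS-dependent BJ fibroblasts engineered with TERT, LT and ST, with cytotoxicity read by fluorescence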
[16] = luciferase reporter signal suppression in cells – H4 neuroglioma cells, luminescence, dose response (AID 1990); type: functional, cell-based
BJ [17] = assay: BJ-TERT fibroblast viability loss – cell-based, RAS-independent, luminescence, dose response (AID 1933); type: functional; conditions: Homo sapiens
BJ [18] = assay: cells; type: functional, cell-based; conditions: Homo sapiens
Nonstructural protein 1 = Nonstructural protein 1 (Influenza A virus, UniProt Q194T2); type: functional, Influenza A virus (A/California/07/2009(H1N1))
[19] = alpha-synuclein stem-loop luciferase translation blockers – H4 neuroglioma cells, luminescence, confirmation (AID 1988); type: functional, cell-based
[20] = microbe, parasite or virus in culture; type: functional; conditions: Mycobacterium tuberculosis
Kallikrein-7 = Kallikrein-7 (Homo sapiens, UniProt P49862); assay: Fluorescence Intensity-based biochemical primary high throughput dose response assay to identify activators of kallikrein-7 (K7) zymogen.
Sequence of Kallikrein-7 (P49862 whole entry): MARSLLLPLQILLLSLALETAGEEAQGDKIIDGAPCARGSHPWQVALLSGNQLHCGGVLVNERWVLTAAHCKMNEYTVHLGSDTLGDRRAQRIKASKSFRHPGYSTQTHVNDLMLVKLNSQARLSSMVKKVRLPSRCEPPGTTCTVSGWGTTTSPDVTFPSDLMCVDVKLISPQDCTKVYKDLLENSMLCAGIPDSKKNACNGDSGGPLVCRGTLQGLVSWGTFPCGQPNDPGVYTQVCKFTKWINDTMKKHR

T4 sequence (P49327 whole entry): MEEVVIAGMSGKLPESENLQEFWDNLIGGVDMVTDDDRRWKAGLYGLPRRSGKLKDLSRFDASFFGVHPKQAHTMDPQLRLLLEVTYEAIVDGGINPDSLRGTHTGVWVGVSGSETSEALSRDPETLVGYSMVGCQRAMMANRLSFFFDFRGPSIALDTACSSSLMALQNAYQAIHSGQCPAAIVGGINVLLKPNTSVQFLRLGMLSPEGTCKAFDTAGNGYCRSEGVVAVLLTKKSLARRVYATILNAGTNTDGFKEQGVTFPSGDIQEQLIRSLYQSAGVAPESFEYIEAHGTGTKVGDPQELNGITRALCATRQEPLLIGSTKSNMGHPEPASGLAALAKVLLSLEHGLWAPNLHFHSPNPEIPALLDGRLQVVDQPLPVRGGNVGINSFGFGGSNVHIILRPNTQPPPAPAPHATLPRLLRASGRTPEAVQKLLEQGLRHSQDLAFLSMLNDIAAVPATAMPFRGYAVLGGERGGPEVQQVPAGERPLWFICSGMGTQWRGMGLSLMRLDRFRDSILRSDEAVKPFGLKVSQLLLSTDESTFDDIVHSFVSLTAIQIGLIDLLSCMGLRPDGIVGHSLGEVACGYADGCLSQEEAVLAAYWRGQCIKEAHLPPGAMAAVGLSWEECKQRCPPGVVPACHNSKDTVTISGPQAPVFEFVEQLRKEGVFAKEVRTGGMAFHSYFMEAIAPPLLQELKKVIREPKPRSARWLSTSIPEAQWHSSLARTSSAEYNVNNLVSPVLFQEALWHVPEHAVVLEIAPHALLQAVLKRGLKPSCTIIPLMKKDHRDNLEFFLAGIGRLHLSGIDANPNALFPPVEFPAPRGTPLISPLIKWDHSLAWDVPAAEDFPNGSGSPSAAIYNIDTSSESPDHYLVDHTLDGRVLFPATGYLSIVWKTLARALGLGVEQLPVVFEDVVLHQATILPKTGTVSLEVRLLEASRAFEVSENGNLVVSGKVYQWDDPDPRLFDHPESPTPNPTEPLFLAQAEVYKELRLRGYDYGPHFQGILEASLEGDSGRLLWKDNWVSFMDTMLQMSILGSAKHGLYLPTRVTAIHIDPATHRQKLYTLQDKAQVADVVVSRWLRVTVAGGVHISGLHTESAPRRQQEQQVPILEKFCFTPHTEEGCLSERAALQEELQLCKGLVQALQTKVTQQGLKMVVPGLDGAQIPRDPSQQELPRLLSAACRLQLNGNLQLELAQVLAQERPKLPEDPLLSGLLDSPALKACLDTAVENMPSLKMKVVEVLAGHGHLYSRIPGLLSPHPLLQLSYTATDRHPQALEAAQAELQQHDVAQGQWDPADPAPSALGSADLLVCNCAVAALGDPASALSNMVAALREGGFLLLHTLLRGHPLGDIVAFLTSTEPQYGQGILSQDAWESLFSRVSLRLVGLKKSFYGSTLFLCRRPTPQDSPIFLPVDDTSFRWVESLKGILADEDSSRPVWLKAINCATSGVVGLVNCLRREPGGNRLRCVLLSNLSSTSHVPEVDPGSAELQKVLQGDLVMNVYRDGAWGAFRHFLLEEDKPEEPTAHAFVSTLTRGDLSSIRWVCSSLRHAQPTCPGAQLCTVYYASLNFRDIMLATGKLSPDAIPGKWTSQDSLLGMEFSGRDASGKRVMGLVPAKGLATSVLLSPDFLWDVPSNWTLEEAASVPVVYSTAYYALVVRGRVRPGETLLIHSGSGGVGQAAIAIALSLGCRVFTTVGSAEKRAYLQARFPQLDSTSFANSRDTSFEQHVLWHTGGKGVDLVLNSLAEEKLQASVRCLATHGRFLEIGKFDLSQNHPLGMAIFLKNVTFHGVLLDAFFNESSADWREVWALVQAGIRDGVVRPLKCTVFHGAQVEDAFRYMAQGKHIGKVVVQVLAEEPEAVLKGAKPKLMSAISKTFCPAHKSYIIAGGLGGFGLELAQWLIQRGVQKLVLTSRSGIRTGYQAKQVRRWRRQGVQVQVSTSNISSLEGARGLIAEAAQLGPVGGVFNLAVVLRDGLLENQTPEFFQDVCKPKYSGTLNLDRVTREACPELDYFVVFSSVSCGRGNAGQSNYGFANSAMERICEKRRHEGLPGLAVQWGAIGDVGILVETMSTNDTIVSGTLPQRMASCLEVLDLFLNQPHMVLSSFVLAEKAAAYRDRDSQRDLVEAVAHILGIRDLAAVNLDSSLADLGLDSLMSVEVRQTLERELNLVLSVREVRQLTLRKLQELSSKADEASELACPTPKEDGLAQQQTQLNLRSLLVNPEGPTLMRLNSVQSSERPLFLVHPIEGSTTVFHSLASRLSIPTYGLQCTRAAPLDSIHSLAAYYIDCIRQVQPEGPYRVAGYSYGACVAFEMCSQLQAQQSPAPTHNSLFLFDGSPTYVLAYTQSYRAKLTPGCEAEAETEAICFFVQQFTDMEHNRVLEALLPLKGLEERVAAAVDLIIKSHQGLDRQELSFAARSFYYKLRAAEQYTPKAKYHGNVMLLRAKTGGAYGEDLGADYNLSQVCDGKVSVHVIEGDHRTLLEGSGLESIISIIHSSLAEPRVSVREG
Sequence of Nonstructural protein 1 (Q194T2 whole entry): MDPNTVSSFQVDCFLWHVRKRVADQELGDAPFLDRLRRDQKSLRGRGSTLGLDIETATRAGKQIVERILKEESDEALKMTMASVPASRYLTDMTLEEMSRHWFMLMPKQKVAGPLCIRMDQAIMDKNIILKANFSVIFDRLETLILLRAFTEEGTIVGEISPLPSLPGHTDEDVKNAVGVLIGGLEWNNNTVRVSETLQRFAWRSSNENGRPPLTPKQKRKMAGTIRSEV

With `C[n+]1ccc(/C=C/c2ccccc2O)c2ccccc21` as the compound, how does the AC50 [1] read?
Its AC50 is > 20 µM (inactive).

And the AC50 [2]?
Its AC50 is 19.1 µM (active).

And the IC50 [3]?
The IC50 was 178 µM (active).

What about the EC50 [4] of the same compound?
Its EC50 is > 60 µM (not active).

What about the EC50 [5] of the same compound?
The EC50 was 0.753 µM (active).

For `O=C(COC(=O)c1cc([N+](=O)[O-])ccc1NCCO)Nc1cccc(S(=O)(=O)N2CCCC2)c1`, which IC50 (Fatty acid synthase [6]) is on record?
The IC50 was 4.57 µM (active).

What about the IC50 (Fatty acid synthase [7]) of the same compound?
The IC50 was 6.67 µM (active).

What does the source list for `CCCC(C)C(=O)Nc1cc([N+](=O)[O-])ccc1Cl` (stereo unspecified)?
IC50 (Fatty acid synthase [6]): 11.8 µM (active); IC50 (Fatty acid synthase [7]): 12.2 µM (active)

With `Cn1cccc1C(=O)NCC1COc2ccccc2O1` (stereo unspecified) as the compound, how does the IC50 (cells) read?
The IC50 was > 67.5 µM (inactive).

What about the IC50 [8] of the same compound?
Its IC50 is > 67.5 µM (inactive).

For `Cc1cc(-n2c(C)c3c(C)nnc(C)c3c2C)ccc1N`, which AC50 [2] is on record?
Its AC50 is 8.66 µM (active).

What about the EC50 [9] of the same compound?
Its EC50 is > 195 µM (not active).

Which results are given for `Cc1nn2c(NCCCN(C)C)c3c(nc2c1-c1ccccc1)CCC3`?
EC50 [10]: 15.9 µM (active); EC50 [4]: > 60 µM (not active); IC50 (Prothrombin): > 50 µM (not active); EC50 [11]: 15.9 µM (active); EC50 [5]: 0.625 µM (active)

With `COc1ccc(N(C(=O)c2ccco2)S(=O)(=O)c2ccc(F)cc2)cc1` as the compound, how does the IC50 (Prothrombin) read?
The IC50 was 17.5 µM (active).

For `C=CCN(C(=O)Nc1ccc2c(c1)nc(C)n2C)c1ccccc1`, which IC50 (Prothrombin) is on record?
The IC50 was > 50 µM (not active).

What does the source list for `ClC1=C(Cl)C(Cl)=C(Cl)C1=C/C=C/c1ccccc1`?
EC50 [12]: 10.9 µM (active); EC50 [13]: 2.45 µM (active); EC50 (BJ [14]): 2.42 µM (inconclusive); EC50 (BJ [15]): 1.25 µM (active); EC50 [16]: 3.75 µM (inconclusive); EC50 (BJ [17]): 2.55 µM (inconclusive); EC50 (BJ [18]): 2.98 µM (active); IC50 (Nonstructural protein 1): 33.6 µM (active); EC50 [19]: 3.43 µM (active); CC50 [20]: 7.07 µM (active)

Which EC50 (Kallikrein-7) does the source give for `COc1ccc(-c2ccc3nnc(SCC(=O)N4CCCC4)n3n2)cc1` here?
Its EC50 is > 69.5 µM (inactive).
